Measured values reported in patent US20260262643A1, “HERBICIDAL BENZOXAZINES” (FMC CORPORATION, priority 2022, published 2026).

Tests used:
barnyardgrass [1] = assay: Test C preemergence; assay type: in vivo, Echinochloa crusgalli
Outline: (§1)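 Seeds sown in loam soil–sand blend received a directed preemergence soil spray of test chemical in non-phytotoxic solvent with surfactant; postemergence plants (2–10 cm, one- to two-leaf stage) were sprayed with the same formulation. Greenhouse-held 10 days, then visually rated for injury versus untreated controls, 0 (no effect) to 100 (complete control).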

blackgrass [2] = assay: Test C preemergence; assay type: in vivo, Alopecurus myosuroides
Outline: as §1

corn [3] = assay: Test C preemergence; assay type: in vivo, Zea mays
Outline: as §1

green foxtail [4] = assay: Test C preemergence; assay type: in vivo, Setaria viridis
Outline: as §1

kochia [5] = assay: Test C preemergence; assay type: in vivo, Bassia scoparia
Outline: as §1

oat, wild [6] = assay: Test C preemergence; assay type: in vivo, Avena fatua
Outline: as §1

pigweed, palmer [7] = assay: Test C preemergence; assay type: in vivo, Amaranthus palmeri
Outline: as §1

ragweed [8] = assay: Test C preemergence; assay type: in vivo, Ambrosia artemisiifolia
Outline: as §1

ryegrass, Italian [9] = assay: Test C preemergence; assay type: in vivo, Lolium multiflorum
Outline: as §1

soybean [10] = assay: Test C preemergence; assay type: in vivo, Glycine max
Outline: as §1

wheat [11] = assay: Test C preemergence; assay type: in vivo, Triticum aestivum
Outline: as §1

barnyardgrass [12] = assay: Test C postemergence; assay type: in vivo, Echinochloa crusgalli; settings: 10 days, 0 to 100 scale (0 no effect, 100 complete control)
Outline: as §1

blackgrass [13] = assay: Test C postemergence; assay type: in vivo, Alopecurus myosuroides; settings: 10 days, 0 to 100 scale (0 no effect, 100 complete control)
Outline: as §1

corn [14] = assay: Test C postemergence; assay type: in vivo, Zea mays; settings: 10 days, 0 to 100 scale (0 no effect, 100 complete control)
Outline: as §1

green foxtail [15] = assay: Test C postemergence; assay type: in vivo, Setaria viridis; settings: 10 days, 0 to 100 scale (0 no effect, 100 complete control)
Outline: as §1

kochia [16] = assay: Test C postemergence; assay type: in vivo, Bassia scoparia; settings: 10 days, 0 to 100 scale (0 no effect, 100 complete control)
Outline: as §1

oat, wild [17] = assay: Test C postemergence; assay type: in vivo, Avena fatua; settings: 10 days, 0 to 100 scale (0 no effect, 100 complete control)
Outline: as §1

pigweed, palmer [18] = assay: Test C postemergence; assay type: in vivo, Amaranthus palmeri; settings: 10 days, 0 to 100 scale (0 no effect, 100 complete control)
Outline: as §1

ragweed [19] = assay: Test C postemergence; assay type: in vivo, Ambrosia artemisiifolia; settings: Postemergence, 125 g ai/ha; 0 to 100 scale (0 no effect, 100 complete control), 10 days
Outline: as §1

ryegrass, Italian [20] = assay: Test C postemergence; assay type: in vivo, Lolium multiflorum; settings: Postemergence, 125 g ai/ha; 0 to 100 scale (0 no effect, 100 complete control), 10 days
Outline: as §1

soybean [21] = assay: Test C postemergence; assay type: in vivo, Glycine max; settings: Postemergence, 125 g ai/ha; 0 to 100 scale (0 no effect, 100 complete control), 10 days
Outline: as §1

wheat [22] = assay: Test C postemergence; assay type: in vivo, Triticum aestivum; settings: Postemergence, 125 g ai/ha; 0 to 100 scale (0 no effect, 100 complete control), 10 days
Outline: as §1

galium = assay: Test C postemergence; assay type: in vivo, Galium aparine; settings: 10 days, 0 to 100 scale (0 no effect, 100 complete control)
Outline: as §1

horseweed = assay: Test C postemergence; assay type: in vivo, Erigeron canadensis; settings: 10 days, 0 to 100 scale (0 no effect, 100 complete control)
Outline: as §1

barnyardgrass [23] = assay: Test D flooded paddy test; assay type: in vivo, Echinochloa crus-galli; settings: 250 g ai/ha, applied to paddy water, visual rating after 13 to 14 days, scale 0 to 100 (0 no effect, 100 complete control)
Outline: (§2)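 At the 2-leaf stage, floodwater 3 cm deep received the test compound; that depth persisted throughout. Plants scored visually 13 to 14 days on, 0 (no effect) to 100 (complete control), dash indicating no result.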

ducksalad = assay: Test D flooded paddy test; assay type: in vivo, Heteranthera limosa; settings: 250 g ai/ha, applied to paddy water, visual rating after 13 to 14 days, scale 0 to 100 (0 no effect, 100 complete control)
Outline: as §2

rice = assay: Test D flooded paddy test; assay type: in vivo, Oryza sativa; settings: 250 g ai/ha, applied to paddy water, visual rating after 13 to 14 days, scale 0 to 100 (0 no effect, 100 complete control)
Outline: as §2

sedge, umbrella = assay: Test D flooded paddy test; assay type: in vivo, Cyperus difformis; settings: 250 g ai/ha, applied to paddy water, visual rating after 13 to 14 days, scale 0 to 100 (0 no effect, 100 complete control)
Outline: as §2

[24] = 500 g ai/ha, preemergence, 0 to 100 scale (0 no effect, 100 complete control)
[25] = Preemergence, 125 g ai/ha, 0 to 100 scale, 0 no effect, 100 complete control

Structure (SMILES): CCOC[C@H]1CN(C(=O)c2cc(-n3cnc(C(C)(C)C)n3)ccc2C)c2cccc(Cl)c2O1 [Compound 413]
- Barnyardgrass plant response rating (barnyardgrass [1]; [24]): 90
- Plant response rating, Barnyardgrass (barnyardgrass [1]; [25]): 50
- Blackgrass plant response rating (blackgrass [2]; [24]): 60
- Plant response rating, Blackgrass (blackgrass [2]; [25]): 30
- Corn plant response rating (corn [3]; [24]): 10
- Plant response rating, Corn (corn [3]; [25]): 0
- Foxtail, Green plant response rating (green foxtail [4]; [24]): 100
- Plant response rating, Foxtail, Green (green foxtail [4]; [25]): 80
- Kochia plant response rating (kochia [5]; [24]): 80
- Plant response rating, Kochia (kochia [5]; [25]): 10
- Oat, Wild plant response rating (oat, wild [6]; [24]): 0
- Plant response rating, Oat, Wild (oat, wild [6]; [25]): 0
- Pigweed, Palmer plant response rating (pigweed, palmer [7]; [24]): 100
- Plant response rating, Pigweed, Palmer (pigweed, palmer [7]; [25]): 90
- Ragweed plant response rating (ragweed [8]; [24]): 70
- Plant response rating, Ragweed (ragweed [8]; [25]): 60
- Ryegrass, Italian plant response rating (ryegrass, Italian [9]; [24]): 100
- Plant response rating, Ryegrass, Italian (ryegrass, Italian [9]; [25]): 80
- Soybean plant response rating (soybean [10]; [24]): 100
- Plant response rating, Soybean (soybean [10]; [25]): 70
- Wheat plant response rating (wheat [11]; [24]): 0
- Plant response rating, Wheat (wheat [11]; [25]): 0
- Plant response rating, Barnyardgrass (barnyardgrass [12]; 500 g ai/ha, postemergence): 40
- Plant response rating, Barnyardgrass (barnyardgrass [12]; Postemergence, 125 g ai/ha): 20
- Plant response rating, Blackgrass (blackgrass [13]; 500 g ai/ha, postemergence): 20
- Plant response rating, Blackgrass (blackgrass [13]; Postemergence, 125 g ai/ha): 20
- Plant response rating, Corn (corn [14]; 500 g ai/ha, postemergence): 20
- Plant response rating, Corn (corn [14]; Postemergence, 125 g ai/ha): 10
- Plant response rating, Foxtail, Green (green foxtail [15]; 500 g ai/ha, postemergence): 60
- Plant response rating, Foxtail, Green (green foxtail [15]; Postemergence, 125 g ai/ha): 10
- Plant response rating, Kochia (kochia [16]; 500 g ai/ha, postemergence): 90
- Plant response rating, Kochia (kochia [16]; Postemergence, 125 g ai/ha): 90
- Plant response rating, Oat, Wild (oat, wild [17]; 500 g ai/ha, postemergence): 10
- Plant response rating, Oat, Wild (oat, wild [17]; Postemergence, 125 g ai/ha): 0
- Plant response rating, Pigweed, Palmer (pigweed, palmer [18]; 500 g ai/ha, postemergence): 100
- Plant response rating, Pigweed, Palmer (pigweed, palmer [18]; Postemergence, 125 g ai/ha): 100
- Plant response rating, Ragweed (ragweed [19]): 70
- Plant response rating, Ryegrass, Italian (ryegrass, Italian [20]): 40
- Plant response rating, Soybean (soybean [21]): 100
- Plant response rating, Wheat (wheat [22]): 10
- Plant response rating, Galium (galium; 500 g ai/ha, postemergence): 100
- Plant response rating, Galium (galium; Postemergence, 125 g ai/ha): 90
- Plant response rating, Horseweed (horseweed; 500 g ai/ha, postemergence): 60
- Plant response rating, Horseweed (horseweed; Postemergence, 125 g ai/ha): 10
- Plant response rating, Barnyardgrass (Flood) (barnyardgrass [23]): 35
- Plant response rating, Ducksalad (Flood) (ducksalad): 15
- Plant response rating, Rice (Flood) (rice): 10
- Plant response rating, Sedge, Umbrella (Flood) (sedge, umbrella): 45
